Read-outs that look alike come from different tables or passages of the source.
What was measured:
[1] = parameters: species or system C57BL/6 mice; conditions: in vivo; for increase in body temperature: C57BL/6, mouse, 2 h; for concentration dependence of body temperature increase: mouse
Description: As described above, AMG 517, a representative reference drug as a TRPV1 antagonist, and the compound of Formula 1 of the present invention were tested for the increase in body temperature during transdermal administration.

[2] = Change in body temperature after oral administration (nonclinical); type: in vivo, Balb/c mice; conditions: for change in body temperature, dose dependence: up to 4 hours, AMG 517 0.03, 0.1, 0.3 mg/kg, compound of Formula 1 3, 10, 30 mg/kg
Description: Meanwhile, when the same drug was orally administered, a concentration-dependent increase in body temperature due to TRPV1 antagonism was observed as expected (see FIGS. 2A and 2B).

[3] = oral administration for treatment of dental pain; cited from earlier work
[4] = rats, oral dose of 3 mg/kg; cited from earlier work
TRPV1 = target: T1, TRPV1 (Rattus norvegicus, UniProt O35433); conditions: rats; cited from earlier work
T1 construct: host or cells: living rats (endogenous protein)
T1 sequence (O35433 whole entry): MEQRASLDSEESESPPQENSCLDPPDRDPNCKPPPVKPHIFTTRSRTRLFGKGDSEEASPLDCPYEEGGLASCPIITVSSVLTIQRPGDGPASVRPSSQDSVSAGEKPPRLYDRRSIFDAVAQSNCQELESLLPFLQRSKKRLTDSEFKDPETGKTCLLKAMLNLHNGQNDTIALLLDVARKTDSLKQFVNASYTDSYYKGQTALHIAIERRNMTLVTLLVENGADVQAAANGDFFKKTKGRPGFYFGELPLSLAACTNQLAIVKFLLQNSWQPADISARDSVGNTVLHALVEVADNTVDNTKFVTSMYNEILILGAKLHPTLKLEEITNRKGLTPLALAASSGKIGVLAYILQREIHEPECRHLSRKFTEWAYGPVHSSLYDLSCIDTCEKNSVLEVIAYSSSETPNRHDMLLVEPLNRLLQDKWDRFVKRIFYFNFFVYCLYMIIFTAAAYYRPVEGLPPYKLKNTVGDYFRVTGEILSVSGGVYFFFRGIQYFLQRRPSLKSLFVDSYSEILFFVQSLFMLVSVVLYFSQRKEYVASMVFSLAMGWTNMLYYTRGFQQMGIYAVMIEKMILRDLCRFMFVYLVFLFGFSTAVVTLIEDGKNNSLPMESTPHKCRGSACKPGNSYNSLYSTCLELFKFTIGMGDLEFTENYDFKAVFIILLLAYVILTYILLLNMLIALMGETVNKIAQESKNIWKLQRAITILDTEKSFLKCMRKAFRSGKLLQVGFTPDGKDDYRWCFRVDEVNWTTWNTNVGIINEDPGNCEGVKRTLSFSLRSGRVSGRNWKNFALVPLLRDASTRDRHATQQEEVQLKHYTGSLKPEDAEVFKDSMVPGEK

| Structure (SMILES) | increase in body temperature [1] [°C] | concentration dependence of body temperature increase [1] | change in body temperature, dose dependence [2] | change in body temperature at lowest dose ([2]; 0.03 mg/kg) | body temperature raised in human [3] | hyperthermia side effect [3] | increase in body temperature [4] | effective concentration to maximize analgesic efficacy (TRPV1) |
| --- | --- | --- | --- | --- | --- | --- | --- | --- |
| CCCc1nc(C(F)(F)F)ccc1/C=C/C(=O)N[C@H](C)c1cc(F)c(NS(C)(=O)=O)c(F)c1 [compound of Formula 1] | ~0.84 | no concentration dependence was observed | increased body temperature in a dose—dependent manner |  |  |  |  |  |
| CC(=O)Nc1nc2c(Oc3cc(-c4ccc(C(F)(F)F)cc4)ncn3)cccc2s1 [AMG 517] | ~1.59 | significant concentration-dependent increase in body temperature | increased body temperature in a dose—dependent manner | significantly increased body temperature | up to 40 °C | concentration-dependent side effect of hyperthermia | about 1.3 °C | less than 0.3 mg/kg |

From US11382900B2, “Composition for preventing or treating sleep disorders” (AMOREPACIFIC CORPORATION, priority 2017, dated 2022)
